Results reported in US20220202929A1, “DRUG-RESISTANT INFLUENZA VIRUS STRAINS” (President and Fellows of Harvard College, priority 2019, published 2022).

Columns and labels:
Type in all cases: cell-based, influenza A virus
[1] = tested on: NA-H274Y mutant influenza virus strain
[2] = tested on: M2 S31N/L46P mutant influenza virus strain
[3] = tested on: M2 S31N mutant influenza virus strain
[4] = tested on: M2 S31N/G34E mutant influenza virus strain

CCOC(=O)C1=C[C@@H](OC(CC)CC)[C@H](NC(C)=O)[C@@H](N)C1 [oseltamivir]
IC50 [1]: 2.67 µM

NC12CC3CC(CC(C3)C1)C2 [amantadine]
IC50 [2]: 65.9 µM
IC50 [3]: 24.7 µM
IC50 [4]: > 100 µM
